One data set has as its target T1, Human 5-lipoxygenase (Homo sapiens, UniProt P09917).
T1 construct: purchased Cayman 60402; host or cells: insect cells
T1 sequence (P09917 1-674): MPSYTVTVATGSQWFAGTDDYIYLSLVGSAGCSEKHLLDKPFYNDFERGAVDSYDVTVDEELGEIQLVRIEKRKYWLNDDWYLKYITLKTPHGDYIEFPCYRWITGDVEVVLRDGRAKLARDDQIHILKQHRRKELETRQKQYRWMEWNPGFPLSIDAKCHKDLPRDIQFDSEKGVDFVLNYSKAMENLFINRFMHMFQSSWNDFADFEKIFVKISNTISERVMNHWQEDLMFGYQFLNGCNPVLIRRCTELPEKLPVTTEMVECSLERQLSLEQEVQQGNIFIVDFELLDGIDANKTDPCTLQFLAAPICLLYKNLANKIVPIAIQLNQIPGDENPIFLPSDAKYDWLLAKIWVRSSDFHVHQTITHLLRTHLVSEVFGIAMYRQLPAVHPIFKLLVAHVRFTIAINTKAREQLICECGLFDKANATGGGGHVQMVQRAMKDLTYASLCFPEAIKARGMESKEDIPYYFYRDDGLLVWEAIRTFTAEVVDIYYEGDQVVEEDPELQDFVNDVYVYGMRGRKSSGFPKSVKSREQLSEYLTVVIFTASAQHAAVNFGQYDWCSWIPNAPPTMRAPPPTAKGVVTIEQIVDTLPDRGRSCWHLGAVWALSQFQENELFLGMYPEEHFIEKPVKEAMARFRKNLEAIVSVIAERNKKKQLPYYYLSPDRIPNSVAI
Briefly: Activity of compounds against 5-LO enzyme (LTB4 measurement and/or fluorescence method). The format is biochemical. The following applies: for inhibition at 10 µM: 5-LO, single concentration of 10 uM in duplicate; for pIC50: 6 or 11 point dose response in duplicate. The gist of the method: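 Two read-outs: LTB4 measured by EIA and/or LC/MS/MS with LTB4-d4 standard after 15 min RT compound preincubation with insect-cell 5-LO and a 5 min 37 °C reaction on 3 uM arachidonic acid (0.1 mM ATP, pH 7.4). The room-temperature fluorescence format used 20 uM H2DCFDA, 100 uM ATP, 3 uM arachidonic acid, 5 min; IC50 from 6/11-point curves.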

Data set [1] has as its system production of LTB4 in human PBMC (peripheral blood mononuclear cells). Briefly: Production of LTB4 in PBMC (LTB4 secretion assay). The format is cell-based. The following applies: 12 point dose response in duplicate. As to the method:
Frozen human PBMC (peripheral blood mononuclear cells, AllCells, Cat#[…]) was diluted 50 times with fresh culture media (RPMI 1640 supplemented with 10% FBS, 2 mM L-alanyl-L-glutamine). Cells were harvested by centrifugation and resuspended in fresh culture media to a concentration of 5×10^6 cells per milliliter. 140 ul of cell suspension was then liquated to each well (96-well plate). After incubation at 37° C. for 1 hr under 5% CO2, 10 ul of serially diluted compounds (in 100% DMSO) and 10 ul of arachidonic acid to a final concentration of 30 uM were added and further incubated for 1 hr at 37° C. for 1 hr under 5% CO2. Then, inducers, such as A23187 (Ionophor), sodium arsenite, sodium chloride and/or Anti-DNP IgE, were added in a volume of 40 ul and cells were incubated at 37° C. for […]. Culture supernatant was harvested by centrifugation and LTB4 levels were quantified using LTB4 EIA kit (Cayman, Cat#520111). Six of the 378 compounds tested against the 5-LO enzyme in vitro were also selected to be tested for their activity in a human cellular assay. Compounds were tested in a 12 point dose response in duplicate.

The next data set has as its system M. tuberculosis H37Rv. Briefly: Acute TB mouse model of infection, bacterial load in lungs. Particulars: for Log10CFU: 4 weeks of treatment. The format is in vivo, Mycobacterium tuberculosis.
The test system of data set [2] is inflammatory lesions in the lungs. The experiment in a line: Acute TB mouse model of infection, histopathological analysis of lung tissue. The format is in vivo, BalbC mice. Particulars: TB-infected mice, Hematoxylin and Eosin staining, compared with even INH treatment (FIG. 1). As to the method:
The effect of compound 127 on TB-infected mice was compared to that of the reference compound Isoniazid (INH). 8-week old female BalbC mice were infected with 6×10^5 M. tuberculosis H37Rv via intranasal instillation. Mice were sacrificed at day 1 to control the number of CFU in the lungs. In the acute model of infection, mice were treated for 4 weeks, starting at day 1. Compounds were freshly dissolved in a 0.5% methylcellulose solution and administered by oral gavage 5 times/week. Bacterial load was assessed in lungs after homogenizing the organs in 1×PBS. Serial dilutions of organ homogenates were spread on Middlebrook 7H11 plates and CFU were determined after 3 weeks incubation at 37° C. under 5% CO2. Histopathological analysis of lung tissue was performed by Hematoxylin and Eosin staining.

pEC50, pIC50: −log10 of the molar value.

What is called inhibition is the change of the read-out against control, counted positive when it falls. In general, pIC50 refers to the IC50 on a negative log10 scale, so that one unit is a factor of ten. Read a low pIC50 as a high IC50. By pEC50 is commonly meant the EC50 on a negative log10 scale, so that one unit is a factor of ten. As to `CCc1nc2cc([N+](=O)[O-])ccn2c1C(=O)NCc1ccc(N2CCC(Oc3ccc(OC(F)(F)F)cc3)CC2)cc1` [compound 312, 2-Ethyl-7-nitro-N-(4-(4-(4-(trifluoromethoxy)phenoxy)piperidin-1-yl)benzyl)imidazo[1,2-a]pyridine-3-carboxamide], at Human 5-lipoxygenase, the inhibition at 10 µM is > 69% and the pIC50 was > 6.00. Moreover, the pEC50 in data set [1] was > 6.00.

As usually defined, the melting point is the temperature of the solid-liquid transition. Regarding `CCc1nc2ccc(Cl)cn2c1CNc1ccc(N2CCN(c3ccc(F)cc3)CC2)cc1` [compound 311, N-((6-Chloro-2-ethylimidazo[1,2-a]pyridin-3-yl)methyl)-4-(4-(4-fluorophenyl)piperazin-1-yl)aniline], the melting point lay within 191 to 192 °C. Besides, on Human 5-lipoxygenase, the inhibition at 10 µM was > 69% and the pIC50 is > 6.00. Further, the pEC50 in data set [1] is 4.70 to 6.00.

`NNC(=O)c1ccncc1` [INH, Isoniazid, reference compound] registered a Log10CFU in the data set with M. tuberculosis H37Rv (25 mg/kg oral gavage 5 times/week) of 5.0 Log10CFU.

Consider `CCc1nc2ccc(Cl)cn2c1C(=O)N1CCC(OCc2ccc(OC(F)(F)F)cc2)CC1` [compound 313, (6-Chloro-2-ethylimidazo[1,2-a]pyridin-3-yl)(4-(4-(trifluoromethoxy)benzyloxy)piperidin-1-yl)methanone], for which, at Human 5-lipoxygenase, the inhibition at 10 µM is > 69% and the pIC50 was 4.70 to 6.00. Further, the pEC50 in data set [1] is > 6.00.

In the case of `CCc1nc2cc(Cl)ccn2c1C(=O)NCc1ccc2oc(-c3ccc(OC(F)(F)F)cc3)nc2c1` [compound 187, 7-Chloro-2-ethyl-N-((2-(4-(trifluoromethoxy)phenyl)benzo[d]oxazol-5-yl)methyl)imidazo[1,2-a]pyridine-3-carboxamide], the inhibition at 10 µM against Human 5-lipoxygenase was < 40%. Besides, the pEC50 in data set [1] is 4.70 to 6.00.

`CCc1nc2ccc(Cl)cn2c1C(=O)N(C)Cc1ccc(N2CCN(c3ccc(F)cc3)CC2)cc1` [compound 314, 6-Chloro-2-ethyl-N-(4-(4-(4-fluorophenyl)piperazin-1-yl)benzyl)-N-methylimidazo[1,2-a]pyridine-3-carboxamide] came in with a melting point of 148 to 149 °C. At Human 5-lipoxygenase, the inhibition at 10 µM was > 69% and the pIC50 was 4.70 to 6.00. Besides, in data set [1], the pEC50 is > 6.00.

As to `CCc1nc2cc(Cl)ccn2c1C(=O)NCc1ccc(N2CCN(c3ccc(F)cc3)CC2)cc1` [compound 127, 7-Chloro-2-ethyl-N-(4-(4-(4-fluorophenyl)piperazin-1-yl)benzyl)imidazo[1,2-a]pyridine-3-carboxamide], the melting point lay in the range of 212 to 213 °C. Besides, the “number and size of inflammatory lesions in the lungs” value in data set [2] was “significant reduction in the number and size of inflammatory lesions in the lungs”. In the data set on M. tuberculosis H37Rv (50 mg/kg oral gavage 5 times/week), this molecule gave a Log10CFU of 6.47 Log10CFU. Further, the “reduction of CFU compared to untreated mice” value in the data set on M. tuberculosis H37Rv (50 mg/kg, after 4 weeks of treatment) is given as ~1 log CFU. For the same molecule, on Human 5-lipoxygenase, the inhibition at 10 µM was > 69% and the pIC50 was < 4.70. Besides, the pEC50 in data set [1] was > 6.00.
